Results taken from US20100003217A1, “Compounds and Pharmaceutical Compositions for the Treatment of Viral Infections” (priority 2008, published 2010).
Where two headings read alike, the source gives them in different places.

Legend:
Assay type in all cases: in vivo, male Sprague-Dawley rats
[1] = Metabolite profile in rat liver; conditions: for concentration at 2 h / concentration at 6 h / concentration at 24 h: male, Sprague-Dawley, rat, liver; for Percent of Dose, Liver 24 h: after [14C]Compound 1
Description: Homogenates were prepared on dry ice in 70% methanol-30% water containing 20 mM EDTA and 20 mM EGTA (about 1× (w/v) weight of the liver) and were stored frozen. Pooled liver samples were prepared for all groups by combining a fixed percentage of the total weight of each individual animal sample homogenate for each group. Each pooled liver homogenate (3.77-5.02 g) was placed in a 50-mL polypropylene centrifuge tube and 16.0 mL of methanol:water (70:30) was added. The sample was vortexed for one minute, and then centrifuged at 11200×g for 20 minutes. The supernatant was transferred to a tube and total volume was measured. The extraction procedure was repeated three additional times. Radioactivity of each supernatant was determined by LSC of duplicate aliquots (100 μL each) for extraction recovery. Subsamples of all four extracts from each sample were taken for proportionate pooling. For Group 1, the subsamples were pooled before concentration and, for Group 2, each subsample was concentrated separately and then pooled due to the larger volumes involved. Each extract was completely dried or reduced to approximately 100 μL. Reconstitution was accomplished with methanol (20 μL) and sufficient volume of the aqueous mobile phase of HPLC method 2 such that the total volume of each reconstituted sample was 500 μL. Duplicate aliquots of the reconstituted samples were analyzed by LSC. Each sample was analyzed by HPLC method 2.
(§1) Percent of the administered dose (% AD) for parent drug and each metabolite at each collection period=(% of the total radioactivity in the sample attributed to the metabolite)*(total radioactivity expressed as % of the administered dose, recovered during the corresponding collection period).
Microgram equivalents/g for parent drug or metabolite at each collection period (% radioactivity for each metabolite)*(total μg equivalents/g during the corresponding collection period).
Liver homogenates were pooled for each time point for both dose groups by proportional mixing according to the weight of the samples from individual animals. The pooled samples were extracted and prepared for HPLC analysis as described above. The abundance of metabolites was determined as a % of the administered dose and as μg equivalent/g. The data are presented in Table 54, Table 55, Table 56 and Table 57, respectively. Metabolites R^1, R^8 and R^9 were characterized based on retention time.

[2] = Excretion of administered dose in rat urine and feces; conditions: IV; 24 h after [14C]Compound 1
[3] = as above; conditions: for Percent of Dose, Total (urine, feces and liver): Oral, 24 h after [14C]Compound 1; for Total excretion (urine + feces), % of the administered dose: rat
Description: Isotopically diluted [^14C]-Compound 1 was administered intravenously to male Sprague-Dawley rats at 50 mg/kg or by oral gavage at 100 mg/kg.
as §1
The urine and feces of each animal were analyzed for radiolabel content.

[4] = group 1 (IV dose) pooled liver, 2 h
[5] = group 1 (IV dose) pooled liver, 2 h (Table 56)
[6] = group 1 (IV dose) pooled liver, 6 h
[7] = group 1 (IV dose) pooled liver, 6 h (Table 56)
[8] = iv, 50 mg/kg, group 1 (IV dose) pooled liver, 2 h, read-out: liver concentration as μg equivalents/g
[9] = iv, 50 mg/kg, group 1 (IV dose) pooled liver, 6 h, read-out: liver concentration as μg equivalents/g
[10] = rat liver, IV dose, 2 h (Group 1A)
[11] = rat liver, IV dose, 6 h (Group 1B)
[12] = group 1 (IV dose) pooled liver, 24 h
[13] = group 1 (IV dose) pooled liver, 24 h (Table 56)
[14] = group 2 (PO dose) pooled liver, 2 h
[15] = group 2 (PO dose) pooled liver, 2 h (Table 57)
[16] = group 2 (PO dose) pooled liver, 6 h
[17] = group 2 (PO dose) pooled liver, 6 h (Table 57)
[18] = group 2 (PO dose) pooled liver, 24 h
[19] = group 2 (PO dose) pooled liver, 24 h (Table 57)
[20] = iv, 50 mg/kg, group 1 (IV dose) pooled liver, 24 h, read-out: liver concentration as μg equivalents/g
[21] = po, 100 mg/kg, group 2 (PO dose) pooled liver, 2 h, read-out: liver concentration as μg equivalents/g
[22] = po, 100 mg/kg, group 2 (PO dose) pooled liver, 6 h, read-out: liver concentration as μg equivalents/g
[23] = po, 100 mg/kg, group 2 (PO dose) pooled liver, 24 h, read-out: liver concentration as μg equivalents/g
[24] = rat liver, IV dose, 2, 6 and 24 h
[25] = rat liver, PO dose, 2, 6 and 24 h

Compound | % AD [1, 4] | % HPLC (percent of HPLC peak area in the sample extract) [1, 4] | % HPLC (percent of HPLC peak area in the sample extract) [1, 5] | % AD [1, 6] | % HPLC (percent of HPLC peak area in the sample extract) [1, 6] | % HPLC (percent of HPLC peak area in the sample extract) [1, 7] | concentration at 2 h [1, 8] | concentration at 6 h [1, 9] | liver metabolite, % of the administered dose [1, 10] | liver metabolite, % of the administered dose [1, 11] | Percent of Dose, Total (urine, feces and liver) [2] | Percent of Dose, Liver 24 h ([1]; IV) | Percent of Dose, Liver 24 h ([1]; Oral) | % AD [1, 12] | % HPLC (percent of HPLC peak area in the sample extract) [1, 12] | % HPLC (percent of HPLC peak area in the sample extract) [1, 13] | % AD [1, 14] | concentration at 24 h [1, 20] | % of the total radioactivity in liver [1, 24] | % of the total radioactivity in liver [1, 25] | further results
C[C@@]1(O)[C@H](O)[C@@H](COP(=O)(O)OP(=O)(O)OP(=O)(O)O)O[C@H]1n1cnc2c(=O)[nH]c(N)nc21 [Compound 7, [(2R)-2-methyl-β-D-ribofuranosyl]guanine 5′-triphosphate] | 0.05 % AD | 0.29% | 0.29% | 0.04 % AD | 0.35% | 0.35% | 600 ng/g | 480 ng/g | 0.05 % AD | 0.04 % AD |  |  |  |  |  |  |  |  |  |  | concentration at 2 h ([1]; iv, 50 mg/kg, rat liver, IV dose, 2 h (Group 1A), read-out: liver metabolite concentration): 600 ng/g; concentration at 6 h ([1]; iv, 50 mg/kg, rat liver, IV dose, 6 h (Group 1B), read-out: liver metabolite concentration): 480 ng/g
C[C@@]1(O)[C@H](O)[C@@H](CO)O[C@H]1n1cnc2c(=O)[nH]c(N)nc21 [2′-C-methyl guanosine, 9-(2-C-methyl-β-D-ribofuranosyl)guanine, reference compound] | 2.14 % AD | 13.8% | 13.8% | 1.48 % AD | 14.6% | 14.6% | 28400 ng/g | 20000 ng/g |  |  | 34.5% of Dose | 0.42% of Dose | 0.09% of Dose | 0.42 % AD | 23.9% | 23.9% | 0.15 % AD | 5560 ng/g | 14-24% | 54-85% | % HPLC (percent of HPLC peak area in the sample extract) [1, 14]: 77.5%; % HPLC (percent of HPLC peak area in the sample extract) [1, 15]: 77.5%; % AD [1, 16]: 0.32 % AD; % HPLC (percent of HPLC peak area in the sample extract) [1, 16]: 85.0%; % HPLC (percent of HPLC peak area in the sample extract) [1, 17]: 85.0%; % AD [1, 18]: 0.09 % AD; % HPLC (percent of HPLC peak area in the sample extract) [1, 18]: 53.9%; % HPLC (percent of HPLC peak area in the sample extract) [1, 19]: 53.9%; concentration at 2 h [1, 21]: 3940 ng/g; concentration at 6 h [1, 22]: 8760 ng/g; concentration at 24 h [1, 23]: 2200 ng/g; Total excretion (% AD), total (urine + feces) ([3]; IV (1C)): 34.0 % AD; Percent of Dose, Total (urine, feces and liver) [3]: 28.3% of Dose; Total excretion (% AD), total (urine + feces) ([3]; PO (2C), urine data estimated): 28.2 % AD; Total excretion (urine + feces), % of the administered dose ([3]; IV dose): 34.0%; Total excretion (urine + feces), % of the administered dose ([3]; PO dose): 28.2%
C[C@@]1(O)[C@H](O)[C@@H](COP(=O)(O)OP(=O)(O)O)O[C@H]1n1cnc2c(=O)[nH]c(N)nc21 [Compound 6, [(2R)-2-methyl-β-D-ribofuranosyl]guanine 5′-diphosphate] | 3.35 % AD | 21.6% | 21.6% | 2.04 % AD | 20.1% | 20.1% | 44400 ng/g | 27500 ng/g | 3.4 % AD | 2.0 % AD | 0.29% of Dose | 0.29% of Dose | 0.08% of Dose | 0.29 % AD | 16.2% | 16.2% | 0.04 % AD | 3770 ng/g | 16-22% | 15-46% | % HPLC (percent of HPLC peak area in the sample extract) [1, 14]: 22.6%; % HPLC (percent of HPLC peak area in the sample extract) [1, 15]: 22.6%; % AD [1, 16]: 0.06 % AD; % HPLC (percent of HPLC peak area in the sample extract) [1, 16]: 15.0%; % HPLC (percent of HPLC peak area in the sample extract) [1, 17]: 15.0%; % AD [1, 18]: 0.08 % AD; % HPLC (percent of HPLC peak area in the sample extract) [1, 18]: 46.1%; % HPLC (percent of HPLC peak area in the sample extract) [1, 19]: 46.1%; concentration at 2 h [1, 21]: 1150 ng/g; concentration at 6 h [1, 22]: 1550 ng/g; concentration at 24 h [1, 23]: 1880 ng/g; concentration at 2 h ([1]; po, 100 mg/kg, rat liver, PO dose, 2 h, read-out: liver metabolite concentration): 1100 ng/g; concentration at 6 h ([1]; po, 100 mg/kg, rat liver, PO dose, 6 h, read-out: liver metabolite concentration): 1600 ng/g; concentration at 24 h ([1]; po, 100 mg/kg, rat liver, PO dose, 24 h, read-out: liver metabolite concentration): 1900 ng/g; liver metabolite, % of the administered dose ([1]; rat liver, IV dose, 24 h): 0.29 % AD; liver metabolite, % of the administered dose ([1]; rat liver, IV dose, 24 h, listed as diphosphate): 0.3 % AD; liver metabolite, % of the administered dose ([1]; rat liver, PO dose, 2 h): 0.04 % AD; liver metabolite, % of the administered dose ([1]; rat liver, PO dose, 6 h): 0.06 % AD; liver metabolite, % of the administered dose ([1]; rat liver, PO dose, 24 h): 0.08 % AD; Percent of Dose, Total (urine, feces and liver) [3]: 0.08% of Dose
C[C@@]1(O)[C@H](O)[C@@H](COP(=O)(O)O)O[C@H]1n1cnc2c(=O)[nH]c(N)nc21 [Compound 5, [(2R)-2-methyl-β-D-ribofuranosyl]guanine 5′-monophosphate] | 9.73 % AD | 62.6% | 62.6% | 6.39 % AD | 63.1% | 63.1% | 129000 ng/g | 86200 ng/g | 9.7 % AD | 6.4 % AD | 1.05% of Dose | 1.05% of Dose |  | 1.05 % AD | 59.9% | 59.9% |  | 13900 ng/g | 60-63% | not detected | liver metabolite, % of the administered dose ([1]; rat liver, IV dose, 24 h): 1.1 % AD
